Laboratory results reported in patent US20260224503A1, “METHOD FOR PRODUCING PARTICLE, AND PARTICLE PRODUCED BY THE METHOD AND MEDICAMENT” (Ricoh Company, Ltd., priority 2018, published 2026).

Columns and labels:
[1] = Dissolution of diclofenac, dissolution test first liquid (pH 1.2); format: physicochemical
Procedure: (§1) Specifically, The Japanese Pharmacopoeia dissolution test first solution (1,000 mL of a liquid prepared by dissolving 2.0 g of sodium chloride and 7.0 mL of hydrochloric acid in water, pH 1.2) and dissolution test second solution (50 mL of phosphate buffer solution, pH 6.8 (a liquid prepared by mixing water with a liquid, which had been prepared by dissolving 3.4 g of potassium dihydrogen phosphate and 3.55 g of anhydrous disodium hydrogen phosphate in water to give 1,000 mL, at the mixing ratio of 1:1, pH 6.8)) were used as the test liquids, and the test was performed at 37±0.5 degrees Celsius and at the rotational speed of 50 rpm.

[2] = Dissolution of diclofenac, dissolution test second liquid (pH 6.8); format: physicochemical; details: for Diclofenac concentration pH 6.8: 2 mg diclofenac, 37 degrees Celsius, 50 rpm
Procedure: as §1

dissolution of diclofenac, in words [1]: prompt elusion
Diclofenac concentration pH 6.8 ([2]; collection time 0 min): 0 μg/mL
Diclofenac concentration pH 6.8 ([2]; collection time 10 min): 20.92 ± 0.66 μg/mL
Diclofenac concentration pH 6.8 ([2]; collection time 20 min): 19.83 ± 0.74 μg/mL
Diclofenac concentration pH 6.8 ([2]; collection time 30 min): 20.07 ± 0.59 μg/mL
Diclofenac concentration pH 6.8 ([2]; collection time 40 min): 19.97 ± 0.22 μg/mL
Diclofenac concentration pH 6.8 ([2]; collection time 60 min): 20.42 ± 0.46 μg/mL
Diclofenac concentration pH 6.8 ([2]; collection time 90 min): 20.21 ± 0.54 μg/mL
Diclofenac concentration pH 6.8 ([2]; collection time 120 min): 20.45 ± 0.69 μg/mL
dissolution of diclofenac, in words ([2]; dissolution test second liquid (pH 6.8)): sustained release
SMILES: O=C(O)Cc1ccccc1Nc1c(Cl)cccc1Cl [diclofenac bulk powder, diclofenac]
